Assay results taken from patent US20120058133A1, “INHIBITION OF TRNA SYNTHETASES AND THERAPEUTIC APPLICATIONS THEREOF” (President and Fellows of Harvard College, priority 2009, published 2012).
Like-named read-outs stand apart in the source and are kept apart here.

Tested on: murine CD4+ CD25− T cells
Assay: Th17 differentiation of activated CD4+ CD25− T cells (TGFβ plus IL-6; IL-17+ IFNγ− cells)
Assay type: cell-based, mouse
Settings: for rescue of HF-inhibited Th17 differentiation by added amino acids: 1 mM amino acids; for IC50: Mus musculus, T-cell
Description: Purified CD4^+ CD25^− T cells were activated in vitro as previously described (Djuretic et al., Nat. Immunol. 8:145, 2007) using 0.3 μg/ml hamster anti-mouse CD3 (clone 145-2C11) (ATCC—Manassas, Va.) and 0.5 μg/ml hamster anti-mouse CD28 (BD Pharmingen—San Jose, Calif.). Activated cell cultures were differentiated using the following combinations of cytokines and antibodies: iTreg-recombinant human TGFβ1 (3 ng/ml—R&D systems, Minneapolis, Minn.), Th17-TGFβ1 (3 ng/ml) plus recombinant mouse IL-6 (30 ng/ml—R&D systems). Th1 and Th2 differentiation was performed as previously described (Djuretic et al., Nat. Immunol. 8:145, 2007). Human IL-2 supernatant (National Cancer Institute) was used in culture at 0.01 U/ml and was added at 48 hours-post activation when T cells were split into tissue culture wells lacking CD3 and CD28 antibodies, with the exception of Th17 cultures that were maintained in the absence of exogenous IL-2. CD8^+ T cells were activated with 1 μg/ml anti-CD3 and 1 μg/ml anti-CD28 and were expanded in 0.1 U/ml IL-2 until day 6 post activation. CD43-depleted B cells were activated in vitro by culturing with 25 μg/ml LPS (Sigma—St. Louis, Mo.) for 3-4 days in the presence or absence of TGFβ. All reagents (see below) were added at the time of T cell activation and again at 48 hours post activation unless indicated otherwise. For some experiments, purified CD4^+ CD25^− T cells, CD8^+ T cells or B cells were labeled with 1 μM CFSE (Invitrogen) prior to activation in accordance with manufacturer's instructions. Human T cell activation was performed by plating purified monocytes in a 96-well flat bottom plate at a concentration of 2×10^4 cells per well in complete medium overnight. 10^5 purified human memory T cells were added to monocyte cultures in the presence of soluble anti-CD3/anti-CD28 beads (Dynabeads, Invitrogen). T cells were expanded in the presence HF or MAZ1310 for up to 6 days.
MAZ1310 (Kamberov, Ph.D. Dissertation, Harvard University, 2008) was generated by chemical derivatization of halofuginone and was used at equal concentrations as a negative control. HF and MAZ1310 were prepared as 100 mM stock solutions in DMSO and diluted to the indicated concentrations. SB-431542 (Inman et al., Mol. Pharmacol. 62:65, 2002) (Tocris bioscience—Ellisville, Mo.) was prepared as a 10 mM stock solution in DMSO and was used in culture at 10 μM. L-tryptophanol was prepared as a 20 mM stock solution in 0.1 M NaOH, pH 7.4 and was used at 0.2 mM. For amino acid starvation experiments, T cells were activated and differentiated as above in D-MEM medium without L-cysteine and L-methionine (Invitrogen—Carlsbad, Calif.), or D-MEM medium without L-leucine. Stocks containing 20 mM L-cysteine (Sigma—St. Louis, Mo.) plus 10 mM L-methionine (Sigma), or 400 mM L-leucine (Sigma) were prepared in ddH2O, pH 1.0 and were added to medium at the indicated concentrations.
For detection of intracellular cytokines in murine cells, cultured T or B cells were stimulated with 10 nM PMA (Sigma) and […] (Sigma) for 4-5 hours in the presence of 10 mM brefeldin A (Sigma). Stimulated cells were harvested, washed with PBS and fixed with PBS plus 4% paraformaldehyde at room temperature for 20 minutes. Cells were then washed with PBS, permeabilized with PBS supplemented with 1% BSA and 0.5% saponin (Sigma) at room temperature for 10 minutes before cytokine-specific antibodies were added and incubated with cells for an additional 20 minutes at room temperature.

Molecule	IL-17 expression in T cells (low concentrations of tunicamycin)	IL-17 expression with IFNγ and IL-4 blocked by neutralizing antibodies	Th17 differentiation in T cells transduced with RORγt-expressing vs empty retroviruses	IL-17 expression in cells with equivalent number of cell divisions (CFSE dilution) (5 nM, 10 nM HF)	IL-17 expression in T cells lacking Foxp3 (10 nM HF)	Th17 differentiation of T cells expressing STAT3C (10 nM HF)	upregulation of RORγt or RORα during Th17 differentiation (10 nM HF)	time of HF addition for inhibition of IL-17 expression (10 nM HF added at times after activation)	rescue of HF-inhibited Th17 differentiation by added amino acids (10 nM HF)	rescue of HF-inhibited Th17 differentiation by added amino acids (10 nM HF, listed as halofuginone)	Foxp3 expression in T cells differentiated with TGFβ plus IL-6 (10 nM HF, day 3)	expression of IL-17 and IL-17f mRNA (10 nM, 4 days, Th17 conditions)	IC50 (96 h, restimulation on day 4-5, read-out: IC50 for Th17 differentiation (percentage of IL-17+ IFNγ− cells)) [nM]	IC50 (read-out: concentration giving 50% inhibition of Th17 cell development) [nM]	Th17 differentiation of cells expressing YFP or no transgene (TAT-Cre treated, TGFβ plus IL-6)	IL-17 production (low concentrations of HF (1-10 nM))
tunicamycin	little influence on IL-17 expression	–	–	–	–	–	–	–	–	–	–	–	–	–	–	–
O=C(CC1NCCCC1O)Cn1cnc2cc(Br)c(Cl)cc2c1=O (racemic) [HF, halofuginone]	–	reduced IL-17 expression	inhibited Th17 differentiation as effectively	inhibited IL-17 expression in a dose-dependent manner	strongly repressed IL-17 expression	remained capable of differentiating into Th17 cells	did not interfere	most pronounced when HF was added during a 12-hour window at the start of the culture period	only proline rescued Th17 differentiation	Proline, and no other added amino acid, rescues the inhibition of Th17 differentiation	enhanced Foxp3 expression	impaired	3.6	~3	strongly impaired Th17 differentiation	strongly reduced
